# According to publication PMC8949931, “cADPR Does Not Activate TRPM2” (International Journal of Molecular Sciences, 2022):
# Tests used:
# [1] = molecular target: T1, drTRPM2 (TRPM2 from zebrafish) (Danio rerio, UniProt A0A0R4IMY7); assay: isothermal titration calorimetry (ITC), purified domain, […] °C; format: binding
# T1 construct: isolated MHR1/2 domain, residues 1-419 of drTRPM2, N-terminal His6-tag
# T1 sequence (A0A0R4IMY7 1-419): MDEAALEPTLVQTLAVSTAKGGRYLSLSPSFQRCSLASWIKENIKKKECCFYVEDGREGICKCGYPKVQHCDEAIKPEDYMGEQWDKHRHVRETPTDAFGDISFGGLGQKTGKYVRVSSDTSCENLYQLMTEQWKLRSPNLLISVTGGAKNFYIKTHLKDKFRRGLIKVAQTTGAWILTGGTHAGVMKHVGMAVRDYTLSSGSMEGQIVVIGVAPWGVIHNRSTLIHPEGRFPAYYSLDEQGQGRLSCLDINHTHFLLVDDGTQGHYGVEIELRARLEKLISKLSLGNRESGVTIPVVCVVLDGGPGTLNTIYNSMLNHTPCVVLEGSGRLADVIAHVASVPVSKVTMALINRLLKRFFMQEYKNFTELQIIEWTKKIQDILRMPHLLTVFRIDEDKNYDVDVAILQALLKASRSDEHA
# [2] = molecular target: T2, human TRPM2 (Homo sapiens, UniProt O94759); assay: whole-cell patch clamp, […] coinfused with […] ADPR; format: cell-based
# T2 construct: full-length channel stably expressed in HEK293 cells
# T2 sequence (O94759 whole entry, the tested form may be a part): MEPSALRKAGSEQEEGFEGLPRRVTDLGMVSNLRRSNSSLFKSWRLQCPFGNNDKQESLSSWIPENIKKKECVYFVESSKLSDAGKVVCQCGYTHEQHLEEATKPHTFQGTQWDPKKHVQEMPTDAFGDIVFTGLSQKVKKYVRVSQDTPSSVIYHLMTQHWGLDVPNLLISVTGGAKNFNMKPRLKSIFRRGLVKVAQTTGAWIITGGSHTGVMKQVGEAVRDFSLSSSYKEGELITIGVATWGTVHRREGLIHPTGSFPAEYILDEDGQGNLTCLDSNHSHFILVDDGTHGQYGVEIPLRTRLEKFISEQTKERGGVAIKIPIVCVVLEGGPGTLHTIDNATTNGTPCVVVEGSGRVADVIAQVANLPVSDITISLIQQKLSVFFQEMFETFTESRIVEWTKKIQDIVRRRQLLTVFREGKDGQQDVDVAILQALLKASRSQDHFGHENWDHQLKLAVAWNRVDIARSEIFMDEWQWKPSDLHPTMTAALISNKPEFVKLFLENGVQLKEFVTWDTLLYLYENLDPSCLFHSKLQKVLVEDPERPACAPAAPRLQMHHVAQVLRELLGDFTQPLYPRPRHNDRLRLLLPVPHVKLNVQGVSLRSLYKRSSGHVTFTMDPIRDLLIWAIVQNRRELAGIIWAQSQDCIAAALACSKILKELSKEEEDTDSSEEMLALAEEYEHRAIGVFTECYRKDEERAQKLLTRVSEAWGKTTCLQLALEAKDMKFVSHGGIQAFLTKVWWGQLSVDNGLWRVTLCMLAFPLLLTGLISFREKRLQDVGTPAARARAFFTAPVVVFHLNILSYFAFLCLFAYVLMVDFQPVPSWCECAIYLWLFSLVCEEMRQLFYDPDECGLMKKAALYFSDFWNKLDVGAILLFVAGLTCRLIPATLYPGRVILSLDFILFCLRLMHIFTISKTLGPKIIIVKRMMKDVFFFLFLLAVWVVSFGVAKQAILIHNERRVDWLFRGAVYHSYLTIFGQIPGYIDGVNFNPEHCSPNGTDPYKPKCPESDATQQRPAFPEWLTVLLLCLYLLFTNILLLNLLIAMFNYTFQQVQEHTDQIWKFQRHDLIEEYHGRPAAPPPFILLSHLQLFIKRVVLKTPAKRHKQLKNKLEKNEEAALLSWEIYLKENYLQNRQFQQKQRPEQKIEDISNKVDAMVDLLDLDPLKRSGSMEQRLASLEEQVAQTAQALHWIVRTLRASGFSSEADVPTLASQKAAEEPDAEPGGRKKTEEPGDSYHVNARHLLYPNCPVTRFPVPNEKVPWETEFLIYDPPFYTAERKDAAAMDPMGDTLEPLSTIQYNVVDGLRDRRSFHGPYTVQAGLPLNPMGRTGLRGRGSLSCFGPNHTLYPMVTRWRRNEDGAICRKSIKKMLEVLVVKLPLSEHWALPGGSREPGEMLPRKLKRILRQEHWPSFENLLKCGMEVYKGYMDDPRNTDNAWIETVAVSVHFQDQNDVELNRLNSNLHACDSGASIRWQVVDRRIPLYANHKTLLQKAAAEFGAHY
SMILES,Kd [1] [µM],"whole-cell patch clamp, 1 mM coinfused with 125 μM ADPR [2]"
Nc1ncnc2c1ncn2[C@@H]1O[C@H](COP(=O)(O)OP(=O)(O)OC[C@H]2OC(O)[C@H](O)[C@@H]2O)[C@@H](O)[C@H]1O (stereo partly drawn) [ADPR],2.2,–
Nc1ncnc2c1nc(Br)n2[C@@H]1O[C@H](COP(=O)(O)OP(=O)(O)OC[C@H]2OC(O)[C@H](O)[C@@H]2O)[C@@H](O)[C@H]1O (stereo partly drawn) [8-Br-ADPR],1.4,8-Br-ADPR and 8-Br-cADPR reduce the ADPR-induced current in TRPM2-expressing HEK293 cells
